Laboratory results taken from patent publication US20100138947A1, “Method for Producing Stem Cells or Stel Cell-Like Cells from Mammalian Embryos” (priority 2005, published 2010).

How the values were obtained:
[1] = test system: mouse pre-implantation embryos (129sv x OG2 Oct4-EGFP); test: Isolation of ES-like cells from mouse morula/blastocysts pre-treated with 5-aza-cytidine (Oct4-EGFP reporter); assay type: cell-based; conditions: 1 μM for 24 h pre-treatment
Procedure: Pre-pubertal (5-6 week old) 129sv females were super-ovulated using a routine protocol (1 IU PMSG and HCG injected i.p. 48h apart) before mating with OG2 males. […] The OG2 males, used as studs for mating, were C57/B16 strain and transgenic for an Oct4-EGFP construct. All pluripotent cells from these mice express GFP and this property was exploited in this study with GFP being used as a fluorescent marker to facilitate the identification of ESCs once derived. Zygotes were collected from the oviduct of humanely killed female mice. Cumulus cells were removed from zygotes by treatment with Hyaluronidase (300 IU/ml) in KSOM medium (Chemicon). The zygotes were carefully washed to remove hyaluronidase and transferred to a fresh dish with culture drops in a 37° C. incubator and allowed to develop to the morula/blastocyst stage. Treatment of Morula/Blastocyst with 1 μM of 5-aza-cytidine. Morula/blastocysts were cultured in the KSOM culture drops supplemented with 1 μM 5-aza-cytidine for 24 hr. F1 (CBA/C57) MEF's were used as a feeder layer to facilitate attachment of embryos and subsequent isolation and support of ESCs. MEF's were inactivated by treatment with mitomycin C (10 μg/ml) for 2.5 hr in the 37° C. incubator and plated at the rate of 3×10^5 cells/ml per 6 cm dish. […]

[2] = test system: Bovine D7.5 embryos at the blastocyst stage; test: Culture of crushed whole bovine blastocysts on MEF feeder layer with 5′-azacytidine (primary and passaged outgrowths); assay type: cell-based
Procedure: Bovine D7.5 embryos at the blastocyst stage were crushed and depressed into mouse embryonic feeder (MEF) layers, using fine-tipped glass micropipettes or Ultra-fine needle insulin syringe, and cultured in alpha-MEM medium in presence of bFGF, hEGF, ITS, hrLIF, 2-beta-ME, Glutamax, NEAA and 20% FCS. On the same day or on the following day the media was replaced with fresh media containing (treated group) or not containing (untreated group) 5 μM 5′-azacytidine. The media in each group was changed every 3 days.
After seven to nine days, non-treated and treated “squashed” whole embryos developed morphologically distinguishable primary embryonal outgrowths.
These cell colonies reached confluence in 14-21 days, depending on the number of pieces that were placed in the dish. The growing colonies which developed into confluent monolayers expressed marker of pluripotency, such as Oct4.

Nc1ncn([C@@H]2O[C@H](CO)[C@@H](O)[C@H]2O)c(=O)n1 [5′-azacytidine, 5-azacytidine]
Expression of GFP transgene under control of Oct4 in putative ESCs ([1]; then 0.1 μM in modified ESC medium): expressed a GFP transgene
Formation of ESC-like colonies from embryonal explants ([1]; then 0.1 μM in modified ESC medium on feeder layer, 8-10 days of culture): colonies of cells resembling ESCs were observed
Cell composition/morphology of primary embryonal outgrowth (treated outgrowth, TRO) ([2]; 5 μM, after seven to nine days of culture, untreated outgrowths contained pluripotent, trophoblast and primitive endoderm cells): consisting only of cells with morphology, characteristic of bovine ES-like cells
Expression of markers of pluripotency Oct4, Rex1 and SSEA-1 in TRO outgrowths ([2]; 5 μM, in control outgrowths only the PC part expressed the markers): all the cells expressed these markers
Diameter of TRO outgrowths ([2]; 5 μM, over the next 9-12 days, without any changes in morphology): about 2 cm
Same effects on primary and passaged cultures at reduced concentration ([2]; concentration reduced to below 2.5 μM): not observed
Time for passaged colonies to reach confluence ([2]; passaged TRO in the presence of 5′-azacytidine, depends on number of pieces in the dish): 14 to 21 days
Colony formation of passaged TRO outgrowths ([2]; primary TRO cultured 14-21 days, split into 600-800 μm pieces, passaged onto fresh feeder layer, cultured in the presence of 5′-azacytidine): able to form colonies of cells with uniform morphology, characteristic of bovine ES-like cells
